Measured values taken from patent publication US20120009320A1, “COMPOSITIONS COMPRISING MONATIN AND CALCIUM” (priority 2009, published 2012).
Marks after values point to notes of the source that are not given here. Peptide text beside a SMILES is read from it.

Assays:
panelists = experiment: Sweetness matching of monatin/salt combinations in water pH 7 and citric/citrate buffer pH 3, Examples 3-5; format: in vivo, human
Experimental: Test and reference solutions were prepared in the same medium. The SEVs of monatin/salt combinations at the appropriate concentrations were measured and compared to the SEV of monatin measured in the absence of any salts. […] Monatin-containing test samples and sucrose references were prepared in the same medium. Based on the previous observations that the sweetness of monatin relative to sucrose is sweeter at acidic pH, this study was carried out under two pH conditions; specifically, in water at pH 7-7.5 and in a citric/citrate buffer at pH 3.0. 2R,4R-Monatin mono potassium salt was used as an illustrative form of monatin for the experiments below. All monatin solutions were prepared ‘as is’, i.e., a 40 ppm monatin solution is 40 ppm of monatin mono potassium salt. A sweetness matching procedure was adopted. […] Each test sample was either monatin control or monatin plus designated salt at the stated concentration. Panelists were instructed to taste the test sample and then to identify the reference sample that matched the perceived sweetness of the test sample. If the sweetness of the test sample was judged to fall between that of two references, panelists were instructed to estimate sweetness to one decimal point. Panelists evaluated each sample in duplicate. Results for each test sample were averaged. […] The five samples were tested at pH 7 (water medium) and at pH 3 (citric/citrate buffer). […] The weight percent of calcium in the salt is different for each of the calcium salts. As such, the weight percent of the calcium salt in each sample is calculated in order to determine how much salt is needed to deliver 1200 ppm of calcium cations. […] The weight percent of the other calcium salts is similarly calculated based on the molar weight percent of calcium in the calcium salt. […] The samples were created at pH 3 and pH 7. The impact of other metal ions, specifically potassium and magnesium, (i.e. […] These ions were tested in the form and concentrations found in cow's milk.

[1] = Sweetness of monatin stereoisomers relative to sucrose by weight (from SEV); format: in vivo; settings: general statement of the description
Experimental: As used herein, “sucrose equivalency value”, or SEV, is a measure of sweetness. The SEV is the concentration (% w/v) of a sucrose solution that gives a degree of sweetness that is perceived to be the same degree of sweetness as that of a test sample. For purposes of this disclosure, the SEV of an aqueous or dairy solution containing monatin is determined through comparison of the monatin-containing solution to a series of sucrose containing solutions prepared in the same medium (see Example 1).
Monatin-containing compositions are described herein as being “X” times as sweet as sucrose. The various stereoisomers of monatin are also described as being “X” times sweeter than sucrose. These values are determined from the SEV of the compositions.

[2] = Schiffman, Physiology & Behavior 68 (2000); cited from earlier work
[3] = salt (1450 ppm K+ or 170 ppm Mg2+) with 40 ppm monatin vs monatin only, pH 3.0
[4] = salt (1450 ppm K+ or 170 ppm Mg2+) with 40 ppm monatin, pH 3.0, KCl solutions very salty, estimates difficult
[5] = salt (1450 ppm K+ or 170 ppm Mg++) with 40 ppm monatin vs monatin only, pH 7.0
[6] = salt (1450 ppm K+ or 170 ppm Mg++) with 40 ppm monatin, pH 7.0, KCl solutions very salty, estimates difficult
[7] = 200 ppm calcium (from calcium chloride), 40 ppm monatin, pH 3.0
[8] = 200 ppm calcium (from calcium chloride), 40 ppm monatin, pH 7.0
[9] = calcium salt at 1200 ppm Ca2+ with 40 ppm monatin vs monatin only, pH 3.0
[10] = calcium salt at 1200 ppm Ca2+ with 40 ppm monatin vs monatin only, pH 7.0
[11] = calcium salt at 1200 ppm Ca2+ with 40 ppm monatin, pH 3.0
[12] = calcium salt at 1200 ppm Ca2+ with 40 ppm monatin, pH 7.0
[13] = 400 ppm calcium (from calcium chloride), 40 ppm monatin, pH 3.0
[14] = 400 ppm calcium (from calcium chloride), 40 ppm monatin, pH 7.0
[15] = 800 ppm calcium (from calcium chloride), 40 ppm monatin, pH 3.0
[16] = 800 ppm calcium (from calcium chloride), 40 ppm monatin, pH 7.0
[17] = 1200 ppm calcium (from calcium chloride), 40 ppm monatin, pH 3.0
[18] = 1200 ppm calcium (from calcium chloride), 40 ppm monatin, pH 7.0

For Magnesium gluconate, which “Sweetness Enhancement” value (panelists; [3]) is on record?
Its value is 6%.

And the “Sucrose Equivalency Value” (panelists; [4])?
Its value is 9.1%.

What about the “Sweetness Enhancement” value (panelists; [5]) of the same compound?
Its value is 9%.

What about the “Sucrose Equivalency Value” (panelists; [6]) of the same compound?
The value was 9.2%.

Which “Sweetness Enhancement” value (panelists; [7]) does the source give for calcium here?
Its value is 10%.

What about the “Sweetness Enhancement” value (panelists; [8]) of the same compound?
The value was 19%.

Which results are given for `[Cl-].[K+]` [Potassium chloride]?
Sweetness Enhancement (panelists; [3]): 7%; Sucrose Equivalency Value (panelists; [4]): 9.2%; Sweetness Enhancement (panelists; [5]): 4%; Sucrose Equivalency Value (panelists; [6]): 8.7%

With `NC(CC(O)(Cc1c[nH]c2ccccc12)C(=O)O)C(=O)O` (stereo not drawn) [S,S stereoisomer of monatin, 4-amino-2-hydroxy-2-(1H-indol-3-ylmethyl)-pentanedioic acid] as the compound, how does the “times sweeter than sucrose by weight” value [1] read?
Its value is 50-200 times.

For `COC(=O)[C@H](Cc1ccccc1)NC(=O)[C@@H](N)CC(=O)O` [aspartame] (HELM PEPTIDE1{D.F.[CO[*:1]]}$$$$V2.0), which “effect of the addition of calcium ions on the sweetness intensity of the sweetener” value [2] is on record?
The value was “did not have an effect”.

What does the source list for `CC(O)C(=O)[O-].CC(O)C(=O)[O-].[Ca+2]` (stereo not drawn) [Calcium lactate]?
Sweetness Enhancement (panelists; [9]): 10%; Sweetness Enhancement (panelists; [10]): 13%; Sucrose Equivalency Value (panelists; [11]): 9.5%; Sucrose Equivalency Value (panelists; [12]): 9.5%

With `OC[C@H]1O[C@@](CO)(O[C@H]2O[C@H](CO)[C@@H](O)[C@H](O)[C@H]2O)[C@@H](O)[C@@H]1O` [sucrose] as the compound, how does the “effect of the addition of calcium ions on the sweetness intensity of the sweetener” value [2] read?
Its value is “did not have an effect”.

Which results are given for `[Ca+2].[Cl-].[Cl-]` [Calcium chloride]?
Sucrose Equivalency Value (panelists; [7]): 9.5%; Sweetness Enhancement (panelists; [7]): 10%; Sucrose Equivalency Value (panelists; [8]): 10.0%; Sweetness Enhancement (panelists; [8]): 19%; Sucrose Equivalency Value (panelists; [13]): 10.0%; Sweetness Enhancement (panelists; [13]): 16%; Sucrose Equivalency Value (panelists; [14]): 10.2%; Sweetness Enhancement (panelists; [14]): 21%; Sucrose Equivalency Value (panelists; [15]): 10.2%; Sweetness Enhancement (panelists; [15]): 19%; Sucrose Equivalency Value (panelists; [16]): 10.2%; Sweetness Enhancement (panelists; [16]): 21%; Sucrose Equivalency Value (panelists; [17]): 10.3%; Sweetness Enhancement (panelists; [17]): 20%; Sucrose Equivalency Value (panelists; [18]): 10.1%; Sweetness Enhancement (panelists; [18]): 20%; Sweetness Enhancement (panelists; 1600 ppm calcium (from calcium chloride), 40 ppm monatin, pH 3.0): 19%; Sucrose Equivalency Value (panelists; 1600 ppm calcium (from calcium chloride), 40 ppm monatin, pH 3.0, solutions very salty, SEV estimate very difficult): 10.2** %; Sweetness Enhancement (panelists; 1600 ppm calcium (from calcium chloride), 40 ppm monatin, pH 7.0): 21%; Sucrose Equivalency Value (panelists; 1600 ppm calcium (from calcium chloride), 40 ppm monatin, pH 7.0, solutions very salty, SEV estimate very difficult): 10.2** %; Sweetness Enhancement (panelists; [9]): 20%; Sweetness Enhancement (panelists; [10]): 20%; Sucrose Equivalency Value (panelists; [11]): 10.3%; Sucrose Equivalency Value (panelists; [12]): 10.1%

Which results are given for Calcium gluconate?
Sweetness Enhancement (panelists; [9]): 7%; Sweetness Enhancement (panelists; [10]): 13%; Sucrose Equivalency Value (panelists; [11]): 9.2%; Sucrose Equivalency Value (panelists; [12]): 9.5%
